Measured values reported in US20110038885A1, “CHEMOKINE ANALOGS” (priority 2007, published 2011).
Bridge positions count the residues as written; N and C are the ends. Square brackets hold non-standard residues; d marks the D form. Peptide text beside a SMILES is read from it. dDap = NC[C@@H](N)C(=O)O; Dab = NCC[C@H](N)C(=O)O

Experiments:
MCP-1 = experiment: In vitro chemotaxis (trans-well migration) v MCP-1; format: cell-based, human
How it was run: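 Trans-well migration toward IL-8 or MCP-1 placed below, with agent added to THP-1 cells (10^4-10^6) in the top well and incubation at 37° C (e.g. 4 hours). MTT absorbance at 595 nm, interpolated on a cell standard curve, gives migrated cell numbers; TGFβ-type negative control and cytotoxicity check included.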

IL-8 = experiment: In vitro chemotaxis, inhibition v IL-8; format: cell-based, human; parameters: concentration or dose not given beside the values
Description: To determine whether an agent inhibits a chemokine-induced activity, such as macrophage recruitment, varying amounts of the agent are mixed with cells in the presence of a known chemoattractant. For example, a range of known concentrations of an agent, e.g., a chemokine peptide, is incubated with a defined number (e.g., 10^4-10^6) of human THP-1 monocyte cells in individual wells of the top compartment of a trans-well plate. Chemokine, at a concentration known to cause significant migration of THP-1 cells in the trans-well migration assay, is placed in the lower compartment of a trans-well plate. Cells are then incubated at 37° C. for a period sufficient to allow migration, e.g., 4 hours. After incubation, the cells are gently removed from the top of the filter with a pipette, 20 μl of 20 mM EDTA in simple PBS is added into each top well, and incubated for 20 minutes at 4° C. The filter is carefully flushed with media using a gentle flow, and removed. A standard curve consisting of a two-fold dilution series of THP-1 cells (in 29 μl) is placed to accurately quantify the number of cells that have migrated. Migrated cells are stained with 3 μl of MTT stock dye solution which is added directly into each well (5 mg/ml in RPMI-1640 without phenol red) (Sigma Chemical Co., St. Louis, Mo., USA) and incubated at 37° C. for 4 hours. The media is carefully aspirated from each well, and the converted dye is solubilized by 20 μl of DMSO. Absorbance of converted dye is measured at a wavelength of 595 nm using an ELISA plate reader. The number of migrated cells in each well is then determined by interpolation of the standard curve (see also Imai et al., J. Biol. Chem., 272:15036, 1997). Any method suitable for counting cells can be used, for example, counting with a hemocytometer, incubation of the cells with MTT (see above), or FACS analysis. A negative control assay is also performed, using TGFβ or another non-chemokine chemoattractant (e.g., IL1β or TNFα). To assess whether the agent is cytotoxic, the same concentrations of agent are incubated with THP-1 cells. Agents which 1) are not cytotoxic at levels which inhibit migration, 2) are ineffective at inhibiting the negative control-induced migration, and 3) reduce or inhibit chemokine-induced THP-1 migration, are agents which fall within the scope of the invention.

Molecule | EC50 (MCP-1) [µM] | v IL-8 inhibition (%) (IL-8)
CC[C@H](C)[C@@H]1NC(=O)[C@H](Cc2c[nH]c3ccccc23)NC(=O)[C@H](CCCCN)NC(=O)[C@H](CCC(N)=O)NC(=O)[C@H](CCCCN)NC(=O)[C@@H]2CCCN2C(=O)[C@@H](NC(=O)[C@H](CC(=O)O)NC(=O)[C@@H](N)CC(C)C)CSSC[C@@H](C(N)=O)NC(=O)[C@H](CCC(N)=O)NC1=O [Example 11, Leu-Asp-c(Cys-Pro-Lys-Gln-Lys-Trp-Ile-Gln-Cys)-NH2] (H-LDCPKQKWIQC-NH2; disulfide 3-11) | 0.33 | 38.1
CC[C@H](C)[C@@H]1NC(=O)[C@H](Cc2c[nH]c3ccccc23)NC(=O)[C@@H](NC(=O)[C@H](CCCCN)NC(=O)[C@H](CCC(N)=O)NC(=O)[C@H](CCCCN)NC(=O)[C@@H]2CCCN2C(=O)[C@H](CC(=O)O)NC(=O)[C@@H](N)CC(C)C)CSSC[C@@H](C(N)=O)NC(=O)[C@H](CCC(N)=O)NC1=O [Example 13, Leu-Asp-Pro-Lys-Gln-Lys-c(Cys-Trp-Ile-Gln-Cys)-NH2] (H-LDPKQKCWIQC-NH2; disulfide 7-11) | 8 | 5.8
CC[C@H](C)[C@@H]1NC(=O)[C@@H](NC(=O)[C@H](Cc2c[nH]c3ccccc23)NC(=O)[C@H](CCCCN)NC(=O)[C@H](CCC(N)=O)NC(=O)[C@H](CCCCN)NC(=O)[C@@H]2CCCN2C(=O)[C@H](CC(=O)O)NC(=O)[C@@H](N)CC(C)C)CSSC[C@@H](C(N)=O)NC(=O)[C@H](CCC(N)=O)NC1=O [Example 14, Leu-Asp-Pro-Lys-Gln-Lys-Trp-c(Cys-Ile-Gln-Cys)-NH2] (H-LDPKQKWCIQC-NH2; disulfide 8-11) | 2 | 10.5
CC[C@H](C)[C@@H]1NC(=O)[C@@H](NC(=O)[C@H](Cc2c[nH]c3ccccc23)NC(=O)[C@@H](N)CCCCN)CSSC[C@@H](C(N)=O)NC(=O)[C@H](CCC(N)=O)NC1=O [Example 15, Lys-Trp-c(Cys-Ile-Gln-Cys)-NH2] (H-KWCIQC-NH2; disulfide 3-6) | 3 | 10.5
CC[C@H](C)[C@@H]1NC(=O)[C@H](Cc2c[nH]c3ccccc23)NC(=O)[C@H](CCCCN)NC(=O)[C@H](CCC(N)=O)NC(=O)[C@H](CCCCN)NC(=O)[C@@H]2CCCN2C(=O)[C@H](CC(=O)O)NC(=O)[C@H](CC(C)C)NC(=O)[C@@H](NC(C)=O)CSSC[C@@H](C(=O)N[C@H](CN)C(N)=O)NC(=O)[C@H](CCC(N)=O)NC1=O [Example 16, Ac-c(Cys-Leu-Asp-Pro-Lys-Gln-Lys-Trp-Ile-Gln-Cys)-D-Dap-NH2] (Ac-CLDPKQKWIQC[dDap]-NH2; disulfide 1-11) | 0.8 | 19.8
CC[C@H](C)[C@@H]1NC(=O)[C@H](Cc2c[nH]c3ccccc23)NC(=O)[C@H](CCCCN)NC(=O)[C@H](CCC(N)=O)NC(=O)[C@H](CCCCN)NC(=O)[C@@H]2CCCN2C(=O)[C@H](CC(=O)O)NC(=O)[C@H](CC(C)C)NC(=O)[C@@H](NC(=O)[C@H](CC(=O)O)NC(C)=O)CSSC[C@@H](C(=O)N[C@H](CN)C(N)=O)NC(=O)[C@H](CCC(N)=O)NC1=O [Example 17, Ac-Asp-c(Cys-Leu-Asp-Pro-Lys-Gln-Lys-Trp-Ile-Gln-Cys)-D-Dap-NH2] (Ac-DCLDPKQKWIQC[dDap]-NH2; disulfide 2-12) | > 1 | 15.5
CC[C@H](C)[C@@H]1NC(=O)[C@H](Cc2c[nH]c3ccccc23)NC(=O)[C@H](CCCCN)NC(=O)[C@H](CCC(N)=O)NC(=O)[C@@H](NC(=O)[C@H](CCCCN)NC(=O)[C@@H]2CCCN2C(=O)[C@H](CC(=O)O)NC(=O)[C@H](CC(C)C)NC(C)=O)CSSC[C@@H](C(N)=O)NC(=O)[C@H](CCC(N)=O)NC1=O [Example 22, Ac-Leu-Asp-Pro-Lys-c(Cys-Gln-Lys-Trp-Ile-Gln-Cys)-NH2] (Ac-LDPKCQKWIQC-NH2; disulfide 5-11) | 0.9 | 16.8
CC[C@H](C)[C@@H]1NC(=O)[C@H](Cc2c[nH]c3ccccc23)NC(=O)[C@H](CCCCN)NC(=O)[C@@H](NC(=O)[C@H](CCC(N)=O)NC(=O)[C@H](CCCCN)NC(=O)[C@@H]2CCCN2C(=O)[C@H](CC(=O)O)NC(=O)[C@H](CC(C)C)NC(C)=O)CSSC[C@@H](C(N)=O)NC(=O)[C@H](CCC(N)=O)NC1=O [Example 23, Ac-Leu-Asp-Pro-Lys-Gln-c(Cys-Lys-Trp-Ile-Gln-Cys)-NH2] (Ac-LDPKQCKWIQC-NH2; disulfide 6-11) | > 1 | 13.4
CC[C@H](C)[C@@H]1NC(=O)[C@H](Cc2c[nH]c3ccccc23)NC(=O)[C@H](CCCCN)NC(=O)[C@H](CCC(N)=O)NC(=O)[C@H](CCCCN)NC(=O)[C@@H]2CCCN2C(=O)[C@H](CC(=O)O)NC(=O)[C@H](CC(C)C)NC(=O)[C@@H](NC(C)=O)CSSC[C@@H](C(N)=O)NC(=O)[C@@H](CCC(N)=O)NC1=O [Example 24, Ac-c(Cys-Leu-Asp-Pro-Lys-Gln-Lys-Trp-Ile-D-Gln-Cys)-NH2] (Ac-CLDPKQKWI[dQ]C-NH2; disulfide 1-11) | 0.2 | 33.8

Molecules with a lower EC50 (MCP-1), results first:

EC50 (MCP-1) [µM] | Molecule | v IL-8 inhibition (%) (IL-8)
0.066 | [aminoPeg10-oxaglutaryl]-c(D-Cys-D-Gln-D-Ile-D-Trp-D-Lys-D-Gln-D-Lys-D-Pro-D-Asp-D-Leu-D-Cys)-NH2 [Example 187] | –
0.05 | CC[C@H](C)[C@@H]1NC(=O)[C@H](Cc2c[nH]c3ccccc23)NC(=O)[C@H](CCCCN)NC(=O)[C@@H](NC(=O)[C@H](CCC(N)=O)NC(=O)[C@H](CCCCN)NC(=O)[C@@H]2CCCN2C(=O)[C@H](CC(=O)O)NC(=O)[C@@H](N)CC(C)C)CSSC[C@@H](C(N)=O)NC(=O)[C@H](CCC(N)=O)NC1=O [Example 12, Leu-Asp-Pro-Lys-Gln-c(Cys-Lys-Trp-Ile-Gln-Cys)-NH2] (H-LDPKQCKWIQC-NH2; disulfide 6-11) | 94.8
0.03 | CC[C@@H](C)[C@H]1NC(=O)[C@H](Cc2c[nH]c3ccccc23)NC(=O)[C@H](CCCCN)NC(=O)[C@H](CCC(N)=O)NC(=O)[C@H](CCCCN)NC(=O)[C@@H]2CCCN2C(=O)[C@H](CC(=O)O)NC(=O)[C@H](CC(C)C)NC(=O)[C@@H](NC(C)=O)CSSC[C@@H](C(N)=O)NC(=O)[C@H](CCC(N)=O)NC1=O [Example 25, Ac-c(Cys-Leu-Asp-Pro-Lys-Gln-Lys-Trp-D-Ile-Gln-Cys)-NH2] (Ac-CLDPKQKW[dI]QC-NH2; disulfide 1-11) | 96.9
0.02 | CC[C@H](C)[C@@H]1NC(=O)[C@H](Cc2c[nH]c3ccccc23)NC(=O)[C@H](CCCCN)NC(=O)[C@H](CCC(N)=O)NC(=O)[C@H](CCCCN)NC(=O)[C@@H]2CCCN2C(=O)[C@H](CC(=O)O)NC(=O)[C@H](CC(C)C)NC(=O)[C@@H](NC(C)=O)CSSC[C@@H](C(=O)N[C@@H](CCN)C(N)=O)NC(=O)[C@H](CCC(N)=O)NC1=O [Example 18, Ac-c(Cys-Leu-Asp-Pro-Lys-Gln-Lys-Trp-Ile-Gln-Cys)-Dab-NH2] (Ac-CLDPKQKWIQC[Dab]-NH2; disulfide 1-11) | 103.5
0.01 | CC[C@H](C)[C@@H]1NC(=O)[C@H](Cc2c[nH]c3ccccc23)NC(=O)[C@H](CCCCN)NC(=O)[C@H](CCC(N)=O)NC(=O)[C@H](CCCCN)NC(=O)[C@@H]2CCCN2C(=O)[C@H](CC(=O)O)NC(=O)[C@@H](NC(=O)[C@@H](N)CC(C)C)CSSC[C@@H](C(N)=O)NC(=O)[C@H](CCC(N)=O)NC1=O [Example 10, Leu-c(Cys-Asp-Pro-Lys-Gln-Lys-Trp-Ile-Gln-Cys)-NH2] (H-LCDPKQKWIQC-NH2; disulfide 2-11) | 102.2
